This is an account of results in PubChem BioAssay (NCI).

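Cultured in 96-well plates, cells were exposed to test compound for 48 hours across five concentrations. The concentration for full growth arrest is given as TGI.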

Among the test systems are DU-145 prostate; EKVX NSCLC; HCC-2998 colon; HCT-15 colon; HS 578T breast; HT29 colon; KM12 colon; MALME-3M melanoma; MCF7 breast; NCI-H23 lung; NCI-H460 lung; OVCAR-3 ovarian; PC-3 prostate; RXF 393 renal; SF-268 CNS; SNB-75 CNS; SW-620 colon; UO-31 renal; SF-539 CNS.
Assay in all cases: DTP human tumour cell line panel, 48 h

For orientation: TGI means the concentration giving total growth inhibition.

Consider `O=[N+]([O-])c1ccc(N/N=C2/CC3=C2CCCCCCCCCC3)c([N+](=O)[O-])c1`, for which the TGI with DU-145 prostate, with EKVX NSCLC, in the assay on HCC-2998 colon, with HCT-15 colon, in the assay on HS 578T breast and with HT29 colon was more than 100 µM each time. Besides, the TGI in the assay on KM12 colon, in the assay with MALME-3M melanoma, in the assay on MCF7 breast, in the assay on NCI-H23 lung, in the assay with NCI-H460 lung and in the assay with OVCAR-3 ovarian was more than 100 µM in each case. Besides, the TGI with PC-3 prostate, in the assay with RXF 393 renal, in the assay with SF-268 CNS, in the assay with SNB-75 CNS, in the assay on SW-620 colon and in the assay with UO-31 renal was more than 100 µM throughout.
As to `C[Si](C)(C)c1ccc(-c2c3ccc(-c4cc(Br)cc(Br)c4)nc3nc3nc(-c4cc(Br)cc(Br)c4)ccc23)cc1`, the TGI in the assay on DU-145 prostate, with EKVX NSCLC, in the assay with HCC-2998 colon, in the assay with HCT-15 colon, with KM12 colon and in the assay with MALME-3M melanoma was more than 100 µM in each case. Further, the TGI in the assay with MCF7 breast, with NCI-H23 lung, in the assay with NCI-H460 lung, in the assay on OVCAR-3 ovarian, in the assay with PC-3 prostate and with SF-268 CNS was more than 100 µM throughout. Moreover, the TGI in the assay on SNB-75 CNS and with UO-31 renal was more than 100 µM each time.
Consider `Cc1ccc(OCC2OC(n3cnc4nc(Nc5ccc(Cl)c(Cl)c5)nc(Cl)c43)CC2Oc2ccc(C)cc2)cc1` (centres undefined), for which the TGI with DU-145 prostate, in the assay with EKVX NSCLC, with HCC-2998 colon, with HCT-15 colon, with HS 578T breast and in the assay with HT29 colon was more than 100 µM throughout. Moreover, the TGI in the assay on KM12 colon, in the assay on MALME-3M melanoma, with MCF7 breast, in the assay on NCI-H23 lung, in the assay with NCI-H460 lung and in the assay on OVCAR-3 ovarian was more than 100 µM in each case. For the same compound, the TGI in the assay on PC-3 prostate, in the assay on RXF 393 renal, with SF-268 CNS, in the assay on SNB-75 CNS, in the assay with SW-620 colon and in the assay on UO-31 renal was more than 100 µM throughout.
As for `C[C@@H]1C(=O)O[C@H]1[C@H](O)CO`, the TGI with DU-145 prostate, in the assay on EKVX NSCLC, with HCC-2998 colon, with HCT-15 colon, with KM12 colon and with MCF7 breast was more than 100 µM throughout. Moreover, the TGI with NCI-H23 lung, with NCI-H460 lung, in the assay on OVCAR-3 ovarian, in the assay on PC-3 prostate, with RXF 393 renal and with SNB-75 CNS was more than 100 µM throughout. In addition, in the assay on SW-620 colon, the TGI is more than 100 µM.
On to `CN(C)C=Nc1c2ccccc2nc2ccccc12`, for which the TGI in the assay on DU-145 prostate is 39.7 µM; in the assay with EKVX NSCLC it was 29.1 µM; in the assay with HCT-15 colon it was 32.8 µM; in the assay with HS 578T breast it was 6.82 µM; with HT29 colon it was 14.5 µM; with MALME-3M melanoma, 12.7 µM. In addition, the TGI with MCF7 breast stood at 12.1 µM; with NCI-H23 lung, 15.8 µM; in the assay on OVCAR-3 ovarian it was 13.4 µM; in the assay on PC-3 prostate, 14.5 µM; in the assay with RXF 393 renal, 16.4 µM; with SF-268 CNS, 13.1 µM. Moreover, the figures for the total growth inhibition concentration (TGI) in the assay on SF-539 CNS, with SNB-75 CNS and in the assay with UO-31 renal were 10.4 µM, 13.6 µM and 29.5 µM, respectively.
With `O=C1Cc2nc(CO)c(CO)c(CO)c2CO1`, the total growth inhibition concentration (TGI) in the assay with EKVX NSCLC, in the assay on HCC-2998 colon, in the assay on HCT-15 colon, in the assay with HT29 colon, in the assay on KM12 colon and in the assay with MALME-3M melanoma was more than 100 µM each time. The TGI in the assay on NCI-H23 lung, with NCI-H460 lung, in the assay on OVCAR-3 ovarian, in the assay on SF-268 CNS, with SF-539 CNS and in the assay on SNB-75 CNS was more than 100 µM each time. Further, the TGI in the assay on SW-620 colon and in the assay on UO-31 renal was more than 100 µM in each case.
As to `O=c1oc2ccccc2c(O)c1C(c1cnc2ccccc2c1)c1c(O)c2ccccc2oc1=O`, the TGI with DU-145 prostate is more than 100 µM; in the assay with EKVX NSCLC, more than 100 µM; in the assay with HCT-15 colon, more than 100 µM; in the assay with HS 578T breast, 80.6 µM; in the assay with HT29 colon it was more than 100 µM; with KM12 colon, more than 100 µM. Further, the TGI in the assay with MALME-3M melanoma was more than 100 µM; with NCI-H23 lung it was more than 100 µM; with NCI-H460 lung it was more than 100 µM; with OVCAR-3 ovarian, more than 100 µM; in the assay with PC-3 prostate it was more than 100 µM; with SF-268 CNS, 67.2 µM. The values for the TGI with SNB-75 CNS, in the assay on SW-620 colon and in the assay with UO-31 renal were 52.7 µM, more than 100 µM and more than 100 µM, respectively.
Regarding `CCOC(=O)C1(C/C=C/CCl)CCCC1=O` (centres undefined), the TGI was more than 100 µM with DU-145 prostate; 37.9 µM in the assay on EKVX NSCLC; 40 µM in the assay with HCT-15 colon; more than 100 µM in the assay with HS 578T breast; 68.4 µM in the assay on HT29 colon; 41.2 µM in the assay with KM12 colon. For the same compound, the TGI in the assay on MALME-3M melanoma was 45.4 µM; with MCF7 breast, 48.4 µM; in the assay on NCI-H23 lung, 38.3 µM; in the assay with NCI-H460 lung it was more than 100 µM; in the assay with PC-3 prostate, more than 100 µM; with RXF 393 renal, 32.7 µM. The TGI in the assay with SF-268 CNS was 68.1 µM; in the assay with SF-539 CNS, 40.6 µM; with SNB-75 CNS, 61.8 µM; in the assay with SW-620 colon, 42.1 µM; in the assay on UO-31 renal, 39.7 µM.
